Assay results reported in ChEMBL document CHEMBL5465560, “Selectivity Literature for EUbOPEN Chemogenomic Library” (2024).

Experiments:
Misshapen-like kinase 1 = Misshapen-like kinase 1 (Homo sapiens, UniProt Q8N4C8); assay: Selectivity interaction (KinomeScan (DiscoverX)) EUB0000229b MINK1; conditions: at 10 µM
[1] = molecular target: Insulin-like growth factor 1 receptor (Homo sapiens, UniProt P08069); assay: Selectivity interaction (Kinase panel (enzymatic assay)) EUB0000595a IGF1R
[2] = molecular target: T1, Serine/threonine-protein kinase 17A (Homo sapiens) (UniProt Q9UEE5); assay: Selectivity interaction (KinomeScan (DiscoverX)) EUB0000595a STK17A; conditions: at 10 µM
T1 sequence (whole entry): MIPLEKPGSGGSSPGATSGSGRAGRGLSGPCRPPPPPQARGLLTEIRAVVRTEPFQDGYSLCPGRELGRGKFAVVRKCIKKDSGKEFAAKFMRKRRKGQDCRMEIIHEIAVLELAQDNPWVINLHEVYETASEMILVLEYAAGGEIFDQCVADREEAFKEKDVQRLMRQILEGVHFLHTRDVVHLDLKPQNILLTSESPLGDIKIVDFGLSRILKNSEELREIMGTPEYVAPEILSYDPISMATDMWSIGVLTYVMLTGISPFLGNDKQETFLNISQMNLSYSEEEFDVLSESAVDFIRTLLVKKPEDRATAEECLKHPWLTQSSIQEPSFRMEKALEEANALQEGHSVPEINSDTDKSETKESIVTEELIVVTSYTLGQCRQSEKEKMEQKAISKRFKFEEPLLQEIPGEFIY

[3] = molecular target: STE20-like serine/threonine-protein kinase (Homo sapiens, UniProt Q9H2G2); assay: Selectivity interaction (KinomeScan (DiscoverX)) EUB0001079a SLK; conditions: at 1 µM
[4] = molecular target: Protein kinase C alpha type (Homo sapiens, UniProt P17252); assay: Selectivity interaction (Kinase panel (Z-LYTE Assay)) EUB0001632a PRKCA; conditions: at 10 µM
[5] = system: Proto-oncogene tyrosine-protein kinase receptor Ret (Homo sapiens), P07949 [V804L]; conditions: at 10 µM
[6] = molecular target: Dual specificity protein kinase CLK1 (Homo sapiens, UniProt P49759); assay: Selectivity interaction (Enzymatic assay) EUB0001550a CLK1
[7] = molecular target: T2, Dual specificity mitogen-activated protein kinase kinase 6 (Homo sapiens) (UniProt P52564); assay: Selectivity interaction (Millipore kinase profiler) EUB0000124b MAP2K6; conditions: at 10 µM
T2 sequence (whole entry): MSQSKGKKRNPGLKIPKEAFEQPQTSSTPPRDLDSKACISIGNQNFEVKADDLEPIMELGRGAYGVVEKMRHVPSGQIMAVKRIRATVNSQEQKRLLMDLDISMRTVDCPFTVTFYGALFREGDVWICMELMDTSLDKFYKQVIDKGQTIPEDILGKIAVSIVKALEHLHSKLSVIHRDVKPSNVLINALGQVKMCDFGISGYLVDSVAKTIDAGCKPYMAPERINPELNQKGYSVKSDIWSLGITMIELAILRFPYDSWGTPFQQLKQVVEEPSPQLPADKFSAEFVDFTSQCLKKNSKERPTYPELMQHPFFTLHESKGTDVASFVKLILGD

[8] = molecular target: T3, Dual specificity mitogen-activated protein kinase kinase 4 (Homo sapiens) (UniProt P45985); assay: Selectivity interaction (ProQinase) EUB0000171b MAP2K4
T3 sequence (whole entry): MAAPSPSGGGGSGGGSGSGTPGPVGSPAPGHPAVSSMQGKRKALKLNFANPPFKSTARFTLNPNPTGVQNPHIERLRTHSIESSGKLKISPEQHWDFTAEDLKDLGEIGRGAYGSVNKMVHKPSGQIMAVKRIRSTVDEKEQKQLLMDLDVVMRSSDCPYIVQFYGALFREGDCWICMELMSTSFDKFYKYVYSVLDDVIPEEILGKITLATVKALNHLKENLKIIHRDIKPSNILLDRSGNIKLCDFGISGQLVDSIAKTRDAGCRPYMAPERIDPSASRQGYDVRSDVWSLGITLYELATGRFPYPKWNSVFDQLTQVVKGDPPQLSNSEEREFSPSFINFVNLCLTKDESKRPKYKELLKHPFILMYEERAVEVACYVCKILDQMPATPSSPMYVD

[9] = molecular target: Calcium/calmodulin-dependent protein kinase type II subunit gamma (Homo sapiens) (UniProt Q13555); assay: Selectivity interaction (ActivX KiNativ screen (ex vivo kinase selectivity in human PBMCs)) EUB0001619a CAMK2G; assay type: cell-based; conditions: PBMC, at 1 µM
SRSF protein kinase 1 = SRSF protein kinase 1 (Homo sapiens, UniProt Q96SB4); assay: Selectivity interaction (ActivX KiNativ screen (kinase selectivity in THP-1 cell lysates)) EUB0000639a SRPK1; assay type: subcellular; conditions: lysate, at 0.2 µM
[10] = molecular target: T4, Serine/threonine-protein kinase ULK3 (Homo sapiens) (UniProt Q6PHR2); assay: Selectivity interaction (ActivX KiNativ screen (kinase selectivity in THP-1 cell lysates)) EUB0000639a ULK3; assay type: subcellular; conditions: lysate, at 0.2 µM
T4 sequence (whole entry): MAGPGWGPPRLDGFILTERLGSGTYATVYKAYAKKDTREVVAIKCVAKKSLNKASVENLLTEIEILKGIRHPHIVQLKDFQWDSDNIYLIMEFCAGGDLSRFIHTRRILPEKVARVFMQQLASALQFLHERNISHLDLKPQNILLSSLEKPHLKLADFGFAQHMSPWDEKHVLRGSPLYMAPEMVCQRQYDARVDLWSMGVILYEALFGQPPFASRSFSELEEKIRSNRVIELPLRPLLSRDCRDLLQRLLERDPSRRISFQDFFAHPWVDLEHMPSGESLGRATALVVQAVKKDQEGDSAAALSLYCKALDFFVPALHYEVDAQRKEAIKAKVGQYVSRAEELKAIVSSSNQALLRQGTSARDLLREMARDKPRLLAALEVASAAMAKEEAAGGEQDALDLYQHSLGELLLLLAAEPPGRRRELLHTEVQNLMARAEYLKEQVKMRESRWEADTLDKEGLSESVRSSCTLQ

[11] = molecular target: Serine/threonine-protein kinase N1 (Homo sapiens, UniProt Q16512); conditions: at 10 µM
[12] = molecular target: Serine/threonine-protein kinase 26 (Homo sapiens, UniProt Q9P289); conditions: at 10 µM
[13] = molecular target: Serine/threonine-protein kinase MRCK gamma (Homo sapiens) (UniProt Q6DT37); assay: Selectivity interaction (KinomeScan (DiscoverX)) EUB0000092b CDC42BPG; conditions: at 10 µM

Calcium/calmodulin-dependent protein kinase type II subunit gamma (Homo sapiens), sequence (Q13555 whole entry): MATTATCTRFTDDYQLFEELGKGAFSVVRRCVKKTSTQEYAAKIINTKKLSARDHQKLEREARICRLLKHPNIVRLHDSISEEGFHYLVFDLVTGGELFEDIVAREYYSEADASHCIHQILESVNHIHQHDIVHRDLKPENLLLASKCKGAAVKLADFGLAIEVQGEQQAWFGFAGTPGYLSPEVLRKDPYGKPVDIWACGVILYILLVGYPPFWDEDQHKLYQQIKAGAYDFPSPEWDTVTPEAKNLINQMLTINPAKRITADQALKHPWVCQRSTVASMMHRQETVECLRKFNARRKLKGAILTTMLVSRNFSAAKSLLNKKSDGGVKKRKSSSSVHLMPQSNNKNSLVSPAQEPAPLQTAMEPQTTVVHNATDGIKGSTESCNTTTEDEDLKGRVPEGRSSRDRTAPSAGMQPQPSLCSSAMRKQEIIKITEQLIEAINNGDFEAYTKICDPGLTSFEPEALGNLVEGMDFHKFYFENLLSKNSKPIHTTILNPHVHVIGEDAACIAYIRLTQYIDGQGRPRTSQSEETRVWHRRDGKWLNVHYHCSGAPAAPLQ
STE20-like serine/threonine-protein kinase, sequence (Q9H2G2 whole entry, looked up): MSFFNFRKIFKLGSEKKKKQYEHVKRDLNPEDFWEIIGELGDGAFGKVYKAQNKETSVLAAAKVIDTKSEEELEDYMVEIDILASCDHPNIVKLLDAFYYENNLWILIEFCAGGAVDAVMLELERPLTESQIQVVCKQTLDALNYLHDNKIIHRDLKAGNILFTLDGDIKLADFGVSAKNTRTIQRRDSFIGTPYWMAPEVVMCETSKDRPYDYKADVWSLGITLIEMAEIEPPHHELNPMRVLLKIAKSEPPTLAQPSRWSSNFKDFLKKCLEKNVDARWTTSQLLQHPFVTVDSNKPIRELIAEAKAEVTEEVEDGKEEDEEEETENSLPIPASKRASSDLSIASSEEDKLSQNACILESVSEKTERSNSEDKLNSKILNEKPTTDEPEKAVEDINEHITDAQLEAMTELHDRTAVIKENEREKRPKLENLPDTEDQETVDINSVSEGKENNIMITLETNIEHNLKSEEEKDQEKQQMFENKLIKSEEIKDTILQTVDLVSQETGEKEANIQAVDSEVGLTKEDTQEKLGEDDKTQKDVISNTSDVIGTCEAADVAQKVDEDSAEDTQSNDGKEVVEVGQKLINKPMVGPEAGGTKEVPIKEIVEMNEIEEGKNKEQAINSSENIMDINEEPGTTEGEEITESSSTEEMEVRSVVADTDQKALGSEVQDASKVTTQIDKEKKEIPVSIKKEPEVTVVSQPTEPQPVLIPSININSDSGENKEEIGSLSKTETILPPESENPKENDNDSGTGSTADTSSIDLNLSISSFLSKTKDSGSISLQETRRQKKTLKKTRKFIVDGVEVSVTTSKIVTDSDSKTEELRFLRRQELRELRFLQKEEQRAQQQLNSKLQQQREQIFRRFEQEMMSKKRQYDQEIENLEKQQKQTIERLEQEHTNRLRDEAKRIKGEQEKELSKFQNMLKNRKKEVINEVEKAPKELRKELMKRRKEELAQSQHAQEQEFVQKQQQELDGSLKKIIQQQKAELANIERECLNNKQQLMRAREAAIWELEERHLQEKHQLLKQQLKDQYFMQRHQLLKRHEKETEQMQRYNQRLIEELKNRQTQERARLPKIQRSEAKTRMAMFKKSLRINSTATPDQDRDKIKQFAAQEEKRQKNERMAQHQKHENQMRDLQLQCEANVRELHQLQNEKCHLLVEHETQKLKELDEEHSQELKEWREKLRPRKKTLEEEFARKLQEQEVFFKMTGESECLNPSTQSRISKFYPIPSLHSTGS
Misshapen-like kinase 1, sequence (Q8N4C8 whole entry, looked up): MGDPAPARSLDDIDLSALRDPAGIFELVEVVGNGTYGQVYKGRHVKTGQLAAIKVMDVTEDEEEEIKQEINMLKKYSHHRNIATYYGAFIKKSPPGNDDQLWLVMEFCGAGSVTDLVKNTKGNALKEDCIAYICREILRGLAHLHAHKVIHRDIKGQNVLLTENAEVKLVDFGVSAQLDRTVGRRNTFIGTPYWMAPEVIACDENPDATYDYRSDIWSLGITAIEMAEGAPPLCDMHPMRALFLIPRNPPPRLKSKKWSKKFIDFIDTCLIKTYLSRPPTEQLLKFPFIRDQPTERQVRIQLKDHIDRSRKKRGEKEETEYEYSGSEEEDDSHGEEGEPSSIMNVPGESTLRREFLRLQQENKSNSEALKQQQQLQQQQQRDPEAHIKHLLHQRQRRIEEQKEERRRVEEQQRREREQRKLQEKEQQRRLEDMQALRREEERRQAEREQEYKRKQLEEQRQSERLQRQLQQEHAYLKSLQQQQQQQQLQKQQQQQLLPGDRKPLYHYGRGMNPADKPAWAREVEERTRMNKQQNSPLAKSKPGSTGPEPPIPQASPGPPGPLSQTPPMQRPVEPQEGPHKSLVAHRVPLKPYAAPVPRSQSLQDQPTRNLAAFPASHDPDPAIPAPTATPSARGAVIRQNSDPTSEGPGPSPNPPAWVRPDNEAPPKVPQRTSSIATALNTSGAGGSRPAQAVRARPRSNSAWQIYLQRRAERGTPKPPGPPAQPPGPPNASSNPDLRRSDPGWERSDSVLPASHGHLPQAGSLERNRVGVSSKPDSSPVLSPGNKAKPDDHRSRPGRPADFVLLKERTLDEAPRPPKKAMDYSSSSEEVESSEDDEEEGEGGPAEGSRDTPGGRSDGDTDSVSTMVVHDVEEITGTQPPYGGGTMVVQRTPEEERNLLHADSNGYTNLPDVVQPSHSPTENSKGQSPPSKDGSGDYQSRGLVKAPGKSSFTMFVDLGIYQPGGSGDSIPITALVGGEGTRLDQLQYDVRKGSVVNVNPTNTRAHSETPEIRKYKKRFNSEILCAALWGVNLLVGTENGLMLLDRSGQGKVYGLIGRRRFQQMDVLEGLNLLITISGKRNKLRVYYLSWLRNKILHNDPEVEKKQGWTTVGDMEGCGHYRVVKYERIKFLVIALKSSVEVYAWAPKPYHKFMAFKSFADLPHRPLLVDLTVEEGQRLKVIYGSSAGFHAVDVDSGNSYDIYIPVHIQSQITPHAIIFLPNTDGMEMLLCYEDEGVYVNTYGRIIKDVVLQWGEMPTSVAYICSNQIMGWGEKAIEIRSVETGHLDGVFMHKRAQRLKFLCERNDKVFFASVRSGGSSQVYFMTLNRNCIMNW
Proto-oncogene tyrosine-protein kinase receptor Ret (Homo sapiens), P07949 [V804L], sequence (P07949 whole entry V804L): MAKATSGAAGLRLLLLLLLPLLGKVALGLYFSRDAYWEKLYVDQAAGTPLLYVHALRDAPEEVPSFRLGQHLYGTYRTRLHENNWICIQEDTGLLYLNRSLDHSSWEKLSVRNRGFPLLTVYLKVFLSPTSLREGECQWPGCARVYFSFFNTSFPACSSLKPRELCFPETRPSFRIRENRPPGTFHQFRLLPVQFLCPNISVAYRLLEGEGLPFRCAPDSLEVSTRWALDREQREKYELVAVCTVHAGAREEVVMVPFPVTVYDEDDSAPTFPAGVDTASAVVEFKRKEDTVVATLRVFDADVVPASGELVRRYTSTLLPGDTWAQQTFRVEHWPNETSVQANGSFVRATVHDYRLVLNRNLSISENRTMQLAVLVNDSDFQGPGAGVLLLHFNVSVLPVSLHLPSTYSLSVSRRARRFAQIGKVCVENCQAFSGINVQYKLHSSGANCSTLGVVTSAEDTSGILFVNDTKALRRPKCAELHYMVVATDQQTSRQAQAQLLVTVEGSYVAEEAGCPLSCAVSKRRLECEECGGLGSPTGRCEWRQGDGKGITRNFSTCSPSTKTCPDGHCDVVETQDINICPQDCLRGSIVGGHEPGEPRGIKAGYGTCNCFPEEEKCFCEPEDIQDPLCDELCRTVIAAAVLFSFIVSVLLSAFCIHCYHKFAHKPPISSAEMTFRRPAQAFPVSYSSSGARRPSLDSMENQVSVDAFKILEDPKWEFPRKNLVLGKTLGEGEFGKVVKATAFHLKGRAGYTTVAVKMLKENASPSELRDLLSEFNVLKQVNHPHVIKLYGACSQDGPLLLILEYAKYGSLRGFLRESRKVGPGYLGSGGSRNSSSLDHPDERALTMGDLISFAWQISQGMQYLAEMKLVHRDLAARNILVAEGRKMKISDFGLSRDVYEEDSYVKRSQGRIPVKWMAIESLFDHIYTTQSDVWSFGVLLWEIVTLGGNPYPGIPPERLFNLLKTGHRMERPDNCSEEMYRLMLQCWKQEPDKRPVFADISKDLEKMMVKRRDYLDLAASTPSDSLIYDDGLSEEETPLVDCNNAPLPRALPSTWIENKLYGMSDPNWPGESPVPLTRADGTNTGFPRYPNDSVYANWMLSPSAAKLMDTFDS

Q: How did the % binding (Misshapen-like kinase 1) turn out when `COc1cc(N(C)c2ccnc3ccc(C(F)(F)F)cc23)cc(OC)c1OC` was run?
A: 68%

Q: What does the source list for `COCC(=O)NC/C=C/c1ccc2ncnc(Nc3ccc(Oc4ccc(C)nc4)c(C)c3)c2c1` [CP-724714]?
A: IC50 [1]: > 10000 nM; % of control [2]: 84%

Q: For `Nc1cnc(N2CCc3cc(S(=O)(=O)Nc4c(F)cc(Cl)cc4F)cc(N4CCCC4=O)c32)nc1` [TP-020n], which % of control [3] is on record?
A: 100%

Q: `Cn1cc(-n2cnc3c(NCc4nc5cc(Cl)c(Cl)cc5[nH]4)nc(N4CCOCC4)nc32)cn1` was tested. Which % of control [4] did it give?
A: 1.16%

Q: Which % of control [5] does the source give for `Cc1cc([C@@H](C)Nc2ccccc2C(=O)O)c2nc(N3CCOCC3)cc(=O)n2c1` [AZD-6482] here?
A: 99%

Q: Which IC50 [6] does the source give for `CN(C)CC#Cc1ccc2[nH]c3c(c2c1)-c1nc(N)ncc1CCC3` here?
A: 420 nM

Q: How did the % of control [7] turn out when `CC(=O)Nc1cccc(-n2c(=O)n(C3CC3)c(=O)c3c(Nc4ccc(I)cc4F)n(C)c(=O)c(C)c32)c1` was run?
A: 70%

Q: With `C=CC(=O)Nc1cccc(C(=O)Nc2ccc(Nc3cc(-c4[nH]c(SC)nc4C)ccn3)cc2)c1` as the compound, how does the % of control ([8]; at 1 µM) read?
A: 71%

Q: What about the % of control ([8]; at 5 µM) of the same compound?
A: 90%

Q: For `N#Cc1cccc(-c2c[nH]c3ncnc(N4CCOCC4)c23)c1`, which % of inhibition [9] is on record?
A: -12%

Q: How did the % of inhibition (SRSF protein kinase 1) turn out when `CC[C@@H]1[C@H](F)C(=O)N[C@@H]1COc1nccc2cc(C(N)=O)c(OC)cc12` [ZIMLOVISERTIB] was run?
A: 0.5%

Q: What about the % of inhibition [10] of the same compound?
A: -8.1%

Q: For `CCN(CC)CCCCNc1ncc2cc(-c3cc(OC)cc(OC)c3)c(NC(=O)NC(C)(C)C)nc2n1`, which % of control [11] is on record?
A: 100%

Q: And the % of control [12]?
A: 100%

Q: Which % of control [13] does the source give for `CCC(=O)N1CCN(c2ccc(-n3c(=O)ccc4cnc5ccc(-c6cnc7ccccc7c6)cc5c43)cc2C(F)(F)F)CC1` here?
A: 1.6%
